Experimental data as given in PMC9577195, “Pharmacokinetics, bioavailability, and plasma protein binding study of glytrexate, a novel multitarget antifolate” (Frontiers in Pharmacology, 2022).

Columns and labels:
human plasma proteins = tested on: human plasma proteins; parameters: method as in Robinson et al., 2004; details: ref Robinson et al., 2004; cited from earlier work
[1] = parameters: method as in Pangeni et al., 2018; details: rat, ref Pangeni et al., 2018, cited from earlier work
[2] = Pharmacokinetics and bioavailability in rats after single oral and intravenous doses; assay type: in vivo, Sprague-Dawley rats; details: rat, pemetrexed 20 mg/kg vs glytrexate 25 mg/kg
KB tumor cells = tested on: KB tumor cells; parameters: method as in Xing et al., 2017; details: positive control, ref Xing et al., 2017, read-out: IC50, inhibitory action on KB tumor cells; cited from earlier work

Nc1nc2[nH]cc(CCc3ccc(C(=O)N[C@@H](CCC(=O)O)C(=O)O)cc3)c2c(=O)[nH]1 [pemetrexed]
human plasma protein binding rate (human plasma proteins): 81% | AUC after intravenous administration ([1]; intravenous 10 mg/kg): 31.3 ± 5.34 μg⋅h/mL | T1/2 after intravenous administration ([1]; intravenous): 34.4 ± 4.26 min | AUC after oral administration ([1]; oral 20 mg/kg): 7.55 ± 0.938 μg⋅h/mL | oral bioavailability [1]: 12.0 ± 1.45% | oral AUC of pemetrexed relative to oral glytrexate [2]: approximately 12 fold | IC50 (KB tumor cells): 70 nM
